Results as given in patent publication US12479816B2, “20-HETE formation inhibitors” (UNIVERSITY OF PITTSBURGH—OF THE COMMONWEALTH SYSTEM OF …, priority 2019, dated 2025).
Read-outs that look alike come from different tables or passages of the source.

Experiments:
[1] = system: 20-HETE formation (CYP4) in HLM; experiment: Inhibition of 20-HETE formation at 250 or 500 nM in HLM microsomal incubations; type: biochemical, human; conditions: HLM 300 μg/ml, AA 100 μM, 20 min; for HLM % inh. @ 500 nM: 500 nM compound; for HLM % inh. @ 250 nM: 250 nM compound
Outline: (§1)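 20-HETE formation, measured by UPLC-MS/MS after ether extraction, is reported as percentage of vehicle control, triplicates. Incubations: 300 μg/ml microsomal protein or 25 pmol/mL rCYP4F2, AA 100 μM, NADPH 1 mM, 20 min at 37° C.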

[2] = target: T1, rCYP4F2 (Homo sapiens, UniProt P78329); experiment: Inhibition of 20-HETE formation at 250 or 500 nM in rCYP4F2 incubations; type: biochemical; conditions: rCYP4F2 25 pmol/mL; for inhibition at 0.5 µM: 500 nM compound, read-out: rCYP4F2 % inh. @ 500 nM; for inhibition at 0.25 µM: 250 nM compound, read-out: rCYP4F2 % inh. @ 250 nM
T1 sequence (P78329 5-520): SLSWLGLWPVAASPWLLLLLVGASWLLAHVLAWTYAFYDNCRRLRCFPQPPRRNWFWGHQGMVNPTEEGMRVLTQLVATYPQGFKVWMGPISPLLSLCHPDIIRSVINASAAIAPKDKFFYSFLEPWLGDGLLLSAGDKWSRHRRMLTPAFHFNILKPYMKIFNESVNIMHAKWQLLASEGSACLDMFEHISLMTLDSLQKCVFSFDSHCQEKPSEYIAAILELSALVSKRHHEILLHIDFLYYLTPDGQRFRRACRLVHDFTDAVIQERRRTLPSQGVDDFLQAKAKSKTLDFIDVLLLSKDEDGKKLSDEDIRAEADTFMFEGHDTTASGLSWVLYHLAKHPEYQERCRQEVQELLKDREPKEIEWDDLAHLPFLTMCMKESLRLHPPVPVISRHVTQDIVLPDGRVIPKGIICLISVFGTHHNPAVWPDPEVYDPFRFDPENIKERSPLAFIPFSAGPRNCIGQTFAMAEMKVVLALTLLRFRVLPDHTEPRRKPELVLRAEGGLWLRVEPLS
Outline: as §1

[3] = system: 20-HETE formation (CYP4) in RKM; experiment: Inhibition of 20-HETE formation at 250 or 500 nM in RKM microsomal incubations; type: biochemical, rat; conditions: RKM 300 μg/ml; for RKM % inh. @ 500 nM: 500 nM compound; for RKM % inh. @ 250 nM: 250 nM compound
Protocol: To screen the inhibitory effects against 20-HETE formation, compounds were screened in HLM, RLM, RKM and rCYP4F2 microsomal incubations. Compounds dissolved in either 100% methanol or 100% DMSO to yield 10 mM stock solution. Microsomal incubations containing HLM, RLM, RKM (300 μg/ml) or rCYP4F2 (25 pmol/mL), AA (100 μM), NADPH (1 mM) treated with test compounds at various concentrations (500 nM or 250 nM) in a 1 ml total volume in incubation buffer (0.12 M potassium phosphate buffer containing 5 mM magnesium chloride). Reaction was started by adding NADPH to the incubates and was carried out at 37° C. in a shaking water bath for 20 min. Reaction was stopped by placing tubes on ice, followed by adding 125 μl 20-HETE-d6 as internal standard to each sample. Microsomal incubations were extracted with 3 ml ethyl ether twice, dried down under nitrogen gas and reconstituted in 125 μl 80:20 methanol:deionized H2O for analysis. 20-HETE formation was quantified using a validated UPLC-MS/MS assay and normalized by vehicle group. Each compound had three replications (n=3). Vehicle group was used as control to calculate percentage of 20-HETE formation rate. HET0016 (250 nM) was used as positive control. Incubates without NADPH group served as the negative control. An Acquity ultra performance LC autosampler (Waters, Milford, MA) was used to isolate 20-HETE on an UPLC BEH C18, 1.7 μm (2.1×100 mm) reversed-phase column (Waters, Milford, MA) protected by a guard column (2.1×5 mm; Waters, Milford, MA) of the same packing material. Column temperature was maintained at 55° C. Mobile phases consisted of 0.005% acetic acid, 5% acetonitrile in deionized water (A) and 0.005% acetic acid in acetonitrile (B). The flow rate for mobile phases is 0.5 ml/min. The initial mixture of mobile phase was 65:35 of A and B. Mobile phase B increased at 0.4 minutes after injection from 35% to 70% in a linear gradient over 4 minutes, and again increased to 95% over 0.5 minutes where it remained for 0.3 minutes. This was followed by a linear return to initial conditions over 0.1 minutes with a 1.5 minute pre-equilibration period prior to the next sample run. Total run time was 6.4 minutes for each injection. Injection volumes were 7.5 μl. Mass spectrometric analysis was carried out using a TSQ Quantum Ultra (Thermo Fisher Scientific, San Jose, CA) triple quadrupole mass spectrometer using heated electrospray ionization (HESI). Mass spectrometer was operated in negative selective reaction monitoring (SRM) mode with unit resolutions at both Q1 and Q3 set at 0.70 Da full width at half maximum. Scan time was set at 0.01 s and collision gas pressure was 1.3 mTorr. Quantitation of 20-HETE by SRM was performed by monitoring the m/z. Analytical data was acquired and analyzed using Xcaliber 3.0 data system (ThermoFinnigan, San Jose, CA).

[4] = system: 20-HETE formation (CYP4) in RLM; experiment: Inhibition of 20-HETE formation at 250 or 500 nM in RLM microsomal incubations; type: biochemical, rat; conditions: RLM 300 μg/ml; for RLM % inh. @ 500 nM: 500 nM compound; for RLM % inh. @ 250 nM: 250 nM compound
Outline: as §1

[5] = Turbidometric solubility determination; type: physicochemical; conditions: PBS with 1% DMSO, aqueous buffer, kinetic from dmso stock, room temperature
Protocol: Solubility determinations shown in Table 3 were obtained turbidometrically and in a manner similar to the one described in Perez et al., J. Biomol. Screen, 2015, 20(2), 254-64. The method requires small volumes of 100× stock concentration drug solution to be prepared in DMSO 0, 0.23, 0.47, 0.94, 1.88, 3.75, 7.5, 15.0, 30.0 and […]. The stock drug concentrations are then diluted 1:100 added into triplicate wells containing PBS in a clear bottom 384 well microtiter to achieve final testing concentrations of 0, 2.3, 4.7, 9.4, 18.8, 37.5, 75, 150, 300, 600 μM in 1% DMSO. The plate is allowed to equilibrate with constant shaking for 2 hours at room temperature. The plate is then placed in a SpectroMax V plate reader to measure absorbance at 620 nm. Increase in absorbance is evident in test wells which precipitation of the compound is evident. The plot of OD620 vs. drug concentration is used to calculate the maximum solubility limit as determined by a statistically significant increase in absorbance above the background levels.

SMILES: COc1cc(C2CCN(c3ccn[nH]3)CC2)ccn1 [Compound 16, 4-(1-(1H-Pyrazol-5-yl)piperidin-4-yl)-2-methoxypyridine]
- HLM % inh. @ 500 nM [1]: 27.00%
- inhibition at 0.5 µM [2]: 28%
- RKM % inh. @ 500 nM [3]: 0.00%
- RLM % inh. @ 500 nM [4]: 29.00%

SMILES: Fc1ccc(C2CCN(c3cn[nH]c3)CC2)cc1 [Compound 17, 4-(4-Fluorophenyl)-1-(1H-pyrazol-4-yl)piperidine]
- HLM % inh. @ 500 nM [1]: 80.00%
- inhibition at 0.5 µM [2]: 83%
- RKM % inh. @ 500 nM [3]: 25.00%
- RLM % inh. @ 500 nM [4]: 57.00%

SMILES: Fc1ccc(C2CCN(c3ccn[nH]3)CC2)cc1 [Compound 18, 4-(4-Fluorophenyl)-1-(1H-pyrazol-5-yl)piperidine]
- HLM % inh. @ 500 nM [1]: 66.00%
- inhibition at 0.5 µM [2]: 70%
- RKM % inh. @ 500 nM [3]: 0.00%
- RLM % inh. @ 500 nM [4]: 41.00%

SMILES: CC(=O)N(C)c1ccc(C2CCN(c3ccn[nH]3)CC2)cc1 [Compound 27, N-(4-(1-(1H-Pyrazol-5-yl)piperidin-4-yl)phenyl)-N-methylacetamide]
- HLM % inh. @ 500 nM [1]: 20.00%
- inhibition at 0.5 µM [2]: 14%
- RKM % inh. @ 500 nM [3]: 0.00%
- RLM % inh. @ 500 nM [4]: 8.00%
- solubility at 2 h ([5]; OD620, read-out: Max Solub): > 600 µM
- solubility at 2 h ([5]; read-out: Solubility_ug/mL): 179 µg/mL

SMILES: COc1ccc(C2CCN(c3ccn[nH]3)CC2)cn1 [Compound 31, 5-(1-(1H-Pyrazol-5-yl)piperidin-4-yl)-2-methoxypyridine]
- HLM % inh. @ 500 nM [1]: 35.00%
- inhibition at 0.5 µM [2]: 44%
- RKM % inh. @ 500 nM [3]: 9.00%
- RLM % inh. @ 500 nM [4]: 0.00%
- solubility at 2 h ([5]; OD620, read-out: Max Solub): > 600 µM
- solubility at 2 h ([5]; read-out: Solubility_ug/mL): 155 µg/mL

SMILES: Cc1ccccc1C1CCN(c2ccn[nH]2)CC1 [Compound 35, 1-(1H-Pyrazol-5-yl)-4-(o-tolyl)piperidine]
- HLM % inh. @ 500 nM [1]: 20.00%
- inhibition at 0.5 µM [2]: 20%
- RKM % inh. @ 500 nM [3]: 4.00%
- RLM % inh. @ 500 nM [4]: 0.00%

SMILES: O=S(=O)(c1ccccc1)C1CCN(c2ccn[nH]2)CC1 [Compound 41, 4-(Phenylsulfonyl)-1-(1H-pyrazol-5-yl)piperidine]
- HLM % inh. @ 500 nM [1]: 32.00%
- inhibition at 0.5 µM [2]: 0%
- RKM % inh. @ 500 nM [3]: 0.00%
- RLM % inh. @ 500 nM [4]: 0.00%
- solubility at 2 h ([5]; OD620, read-out: Max Solub): 369 µM
- solubility at 2 h ([5]; read-out: Solubility_ug/mL): 108 µg/mL

SMILES: O=S(=O)(c1ccccc1)C1CCN(c2cn[nH]c2)CC1 [Compound 42, 4-(Phenylsulfonyl)-1-(1H-pyrazol-4-yl)piperidine]
- HLM % inh. @ 500 nM [1]: 5.00%
- inhibition at 0.5 µM [2]: 28%
- RKM % inh. @ 500 nM [3]: 0.00%
- RLM % inh. @ 500 nM [4]: 0.00%

SMILES: COc1ccc(C2CCN(c3ccn[nH]3)CC2)cc1F [Compound 43, 4-(3-Fluoro-4-methoxyphenyl)-1-(1H-pyrazol-5-yl)piperidine]
- HLM % inh. @ 500 nM [1]: 82.00%
- inhibition at 0.5 µM [2]: 79%
- RKM % inh. @ 500 nM [3]: 31.00%
- RLM % inh. @ 500 nM [4]: 17.00%

SMILES: COc1cccc(CC2CCN(c3cn[nH]c3)CC2)c1 [Compound 45, 4-(3-Methoxybenzyl)-1-(1H-pyrazol-4-yl)piperidine]
- HLM % inh. @ 500 nM [1]: 71.00%
- inhibition at 0.5 µM [2]: 73%
- RKM % inh. @ 500 nM [3]: 0.00%
- RLM % inh. @ 500 nM [4]: 24.00%

SMILES: COc1ccc(C2CCN(c3ccn[nH]3)CC2)c(F)c1 [Compound 46, 4-(2-Fluoro-4-methoxyphenyl)-1-(1H-pyrazol-5-yl)piperidine]
- HLM % inh. @ 500 nM [1]: 78.00%
- inhibition at 0.5 µM [2]: 88%
- RKM % inh. @ 500 nM [3]: 0.00%
- RLM % inh. @ 500 nM [4]: 47.00%

SMILES: Fc1cccc(C2CCN(c3ccn[nH]3)CC2)c1 [Compound 48, 4-(3-Fluorophenyl)-1-(1H-pyrazol-5-yl)piperidine]
- HLM % inh. @ 500 nM [1]: 67.00%
- inhibition at 0.5 µM [2]: 63%
- RKM % inh. @ 500 nM [3]: 8.00%
- RLM % inh. @ 500 nM [4]: 0.00%

SMILES: Fc1cccc(C2CCN(c3cn[nH]c3)CC2)c1 [Compound 49, 4-(3-Fluorophenyl)-1-(1H-pyrazol-4-yl)piperidine]
- HLM % inh. @ 500 nM [1]: 80.00%
- inhibition at 0.5 µM [2]: 90%
- RKM % inh. @ 500 nM [3]: 28.00%
- RLM % inh. @ 500 nM [4]: 31.00%

SMILES: Fc1ccccc1C1CCN(c2ccn[nH]2)CC1 [Compound 50, 4-(2-Fluorophenyl)-1-(1H-pyrazol-5-yl)piperidine]
- HLM % inh. @ 500 nM [1]: 47.00%
- inhibition at 0.5 µM [2]: 69%
- RKM % inh. @ 500 nM [3]: 18.00%
- RLM % inh. @ 500 nM [4]: 16.00%

SMILES: Fc1ccccc1C1CCN(c2cn[nH]c2)CC1 [Compound 51, 4-(2-Fluorophenyl)-1-(1H-pyrazol-4-yl)piperidine]
- HLM % inh. @ 500 nM [1]: 77.00%
- inhibition at 0.5 µM [2]: 94%
- RKM % inh. @ 500 nM [3]: 26.00%
- RLM % inh. @ 500 nM [4]: 53.00%

SMILES: c1ccc(N2CCN(c3ccn[nH]3)CC2)cc1 [Compound 53, 1-Phenyl-4-(1H-pyrazol-5-yl)piperazine]
- HLM % inh. @ 250 nM [1]: 14.90%
- inhibition at 0.25 µM [2]: 3.9%
- RKM % inh. @ 250 nM [3]: 8.20%
- RLM % inh. @ 250 nM [4]: 4.30%

SMILES: c1ccc(OC2CCN(c3ccn[nH]3)CC2)cc1 [Compound 55, 4-Phenoxy-1-(1H-pyrazol-5-yl)piperidine]
- HLM % inh. @ 250 nM [1]: 12.11%
- inhibition at 0.25 µM [2]: 0%
- RKM % inh. @ 250 nM [3]: 0.00%
- RLM % inh. @ 250 nM [4]: 0.00%
